Measured values published in PubChem BioAssay (NCI).
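Protocol summary: plate cells (96-well), add compound at 5 concentrations, incubate 48 h, interpolate endpoints linearly. GI50: concentration for 50% inhibition of growth. The concentration for full growth arrest is given as TGI.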

Tests used:
Experiment in all cases: growth of human tumour cells (NCI), 48 h
[1] = test system: ACHN renal
[2] = test system: RXF 393 renal
[3] = test system: SK-OV-3 ovarian
[4] = test system: SF-539 CNS
[5] = test system: MOLT-4 leukemia
[6] = test system: OVCAR-8 ovarian
[7] = test system: OVCAR-5 ovarian
[8] = test system: SK-MEL-5 melanoma
[9] = test system: KM12 colon
[10] = test system: HOP-92 NSCLC
[11] = test system: UO-31 renal
[12] = test system: SK-MEL-28 melanoma
[13] = test system: HS 578T breast
[14] = test system: BT-549 breast
[15] = test system: OVCAR-4 ovarian
[16] = test system: TK-10 renal
[17] = test system: SF-295 CNS
[18] = test system: COLO 205 colon
[19] = test system: SF-268 CNS
[20] = test system: U251 CNS
[21] = test system: MCF7 breast
[22] = test system: CAKI-1 renal
[23] = test system: HCC-2998 colon
[24] = test system: CCRF-CEM leukemia
[25] = test system: SNB-75 CNS
[26] = test system: HOP-62 NSCLC
[27] = test system: HCT-15 colon
[28] = test system: T-47D breast
[29] = test system: NCI-H226 lung
[30] = test system: 786-0 renal
[31] = test system: A549 NSCLC
[32] = test system: PC-3 prostate
[33] = test system: SN12C renal
[34] = test system: IGROV1 ovarian
[35] = test system: A498 renal
[36] = test system: UACC-257 melanoma
[37] = test system: SNB-19 CNS
[38] = test system: LOX IMVI melanoma
[39] = test system: DU-145 prostate
[40] = test system: SK-MEL-2 melanoma
[41] = test system: NCI/ADR-RES ovarian
[42] = test system: SW-620 colon
[43] = test system: RPMI-8226 leukemia
[44] = test system: OVCAR-3 ovarian
[45] = test system: K-562 leukemia
[46] = test system: HT29 colon
[47] = test system: UACC-62 melanoma
[48] = test system: EKVX NSCLC
[49] = test system: NCI-H460 lung
[50] = test system: HL-60(TB) leukemia
[51] = test system: SR leukemia
[52] = test system: MALME-3M melanoma
[53] = test system: HCT-116 colon
[54] = test system: NCI-H522 lung
[55] = test system: MDA-MB-231 breast
[56] = test system: NCI-H23 lung
[57] = test system: M14 melanoma

`COc1cc(C2=NNC(c3ccc(N(C)C)cc3)C2)cc(OC)c1OC` (stereo unspecified) was tested, and the GI50 [1] was 11300 nM, the TGI [1] was > 100000 nM and the GI50 [2] was 1200 nM. The TGI [2] was 4830 nM, the GI50 [3] was 4220 nM and the TGI [3] was > 100000 nM. The GI50 [4] was 560 nM, the TGI [4] was 2890 nM and the GI50 [5] was 2810 nM. The TGI [5] was 11400 nM, the GI50 [6] was 4130 nM and the TGI [6] was > 100000 nM. For the same compound, the GI50 [7] was 4730 nM, the TGI [7] was > 100000 nM and the GI50 [8] was 2090 nM. The TGI [8] was 7150 nM, the GI50 [9] was 525 nM and the TGI [9] was 12400 nM. For the same compound, the GI50 [10] was 3770 nM, the TGI [10] was > 100000 nM and the GI50 [11] was 4750 nM. The TGI [11] was 50600 nM, the GI50 [12] was 15600 nM and the TGI [12] was > 100000 nM. For the same compound, the GI50 [13] was 2240 nM, the TGI [13] was 5960 nM and the GI50 [14] was 811 nM. For the same compound, the TGI [14] was 10300 nM, the GI50 [15] was 16900 nM and the TGI [15] was > 100000 nM. The GI50 [16] was 10100 nM, the TGI [16] was > 100000 nM and the GI50 [17] was 249 nM. It also gave a TGI [17] of 799 nM, a GI50 [18] of 2390 nM and a TGI [18] of 12500 nM. For the same compound, the GI50 [19] was 2090 nM, the TGI [19] was > 100000 nM and the GI50 [20] was 672 nM. The TGI [20] was > 100000 nM, the GI50 [21] was 433 nM and the TGI [21] was > 100000 nM. The GI50 [22] was 2680 nM, the TGI [22] was > 100000 nM and the GI50 [23] was 1400 nM. For the same compound, the TGI [23] was 4600 nM, the GI50 [24] was 1620 nM and the TGI [24] was 6220 nM. The GI50 [25] was 1020 nM, the TGI [25] was > 100000 nM and the GI50 [26] was 1130 nM. The TGI [26] was > 100000 nM, the GI50 [27] was 2480 nM and the TGI [27] was > 100000 nM. For the same compound, the GI50 [28] was 19800 nM, the TGI [28] was > 100000 nM and the GI50 [29] was 54700 nM. The TGI [29] was > 100000 nM, the GI50 [30] was 1930 nM and the TGI [30] was > 100000 nM. The GI50 [31] was 3940 nM, the TGI [31] was > 100000 nM and the GI50 [32] was 781 nM. For the same compound, the TGI [32] was > 100000 nM, the GI50 [33] was 4630 nM and the TGI [33] was > 100000 nM. It also gave a GI50 [34] of 546 nM, a TGI [34] of 3060 nM and a GI50 [35] of 2870 nM. It also gave a TGI [35] of 8840 nM, a GI50 [36] of 8610 nM and a TGI [36] of 47400 nM. The GI50 [37] was 1820 nM, the TGI [37] was > 100000 nM and the GI50 [38] was 7180 nM. The TGI [38] was > 100000 nM, the GI50 [39] was 1880 nM and the TGI [39] was 5410 nM. It also gave a GI50 [40] of 3180 nM, a TGI [40] of 26200 nM and a GI50 [41] of 2200 nM. For the same compound, the TGI [41] was > 100000 nM, the GI50 [42] was 450 nM and the TGI [42] was > 100000 nM. For the same compound, the GI50 [43] was 1710 nM, the TGI [43] was 11700 nM and the GI50 [44] was 6070 nM. For the same compound, the TGI [44] was > 100000 nM, the GI50 [45] was 406 nM and the TGI [45] was 74500 nM. For the same compound, the GI50 [46] was 667 nM, the TGI [46] was > 100000 nM and the GI50 [47] was 4370 nM. The TGI [47] was > 100000 nM, the GI50 [48] was 2020 nM and the TGI [48] was 6020 nM. It also gave a GI50 [49] of 1140 nM, a TGI [49] of 6830 nM and a GI50 [50] of 1620 nM. It also gave a TGI [50] of 4960 nM, a GI50 [51] of 250 nM and a TGI [51] of 8060 nM. For the same compound, the GI50 [52] was 7850 nM, the TGI [52] was > 100000 nM and the GI50 [53] was 2030 nM. For the same compound, the TGI [53] was 19700 nM, the GI50 [54] was 2000 nM and the TGI [54] was 5740 nM.

Compound `COc1cc(-c2nc3ccccc3s2)ccc1OCCCCCOc1cc2c(cc1OC)C(=O)N1CCC[C@H]1C=N2` has a GI50 [1] of 53.5 nM, a TGI [1] of 398 nM and a GI50 [3] of 177 nM. It also gave a TGI [3] of 674 nM, a GI50 [4] of 86.4 nM and a TGI [4] of 286 nM. For the same compound, the GI50 [5] was 41.3 nM, the TGI [5] was 2270 nM and the GI50 [6] was 168 nM. For the same compound, the TGI [6] was > 69800 nM, the GI50 [7] was 154 nM and the TGI [7] was 7870 nM. For the same compound, the GI50 [8] was 59 nM, the TGI [8] was 135 nM and the GI50 [9] was 206 nM. The TGI [9] was 1600 nM, the GI50 [10] was 100 nM and the TGI [10] was 397 nM. The GI50 [12] was 255 nM, the GI50 [13] was 219 nM and the TGI [13] was 600 nM. It also gave a GI50 [14] of 45.7 nM, a TGI [14] of 126 nM and a GI50 [15] of 264 nM. The GI50 [16] was 334 nM, the TGI [16] was 14100 nM and the GI50 [17] was 140 nM. For the same compound, the TGI [17] was > 63300 nM, the GI50 [18] was 99.2 nM and the TGI [18] was 332 nM. The GI50 [19] was 305 nM, the TGI [19] was 3530 nM and the GI50 [20] was 63.2 nM. It also gave a TGI [20] of 7140 nM, a GI50 [21] of 32.4 nM and a TGI [21] of 701 nM. For the same compound, the GI50 [23] was 125 nM, the TGI [23] was 300 nM and the GI50 [24] was 27.5 nM. The TGI [24] was 2160 nM, the GI50 [25] was 191 nM and the TGI [25] was 779 nM. It also gave a GI50 [26] of 85.1 nM, a TGI [26] of 950 nM and a GI50 [27] of 284 nM. For the same compound, the TGI [27] was 6020 nM, the GI50 [28] was 40.7 nM and the TGI [28] was 160 nM. For the same compound, the GI50 [55] was 145 nM, the TGI [55] was 1970 nM and the GI50 [29] was 212 nM. The TGI [29] was 528 nM, the GI50 [30] was 84.3 nM and the TGI [30] was 380 nM. It also gave a GI50 [32] of 103 nM, a TGI [32] of 665 nM and a GI50 [33] of 256 nM. The TGI [33] was 4540 nM, the GI50 [34] was 244 nM and the GI50 [35] was 199 nM. For the same compound, the TGI [35] was 358 nM, the GI50 [36] was 253 nM and the TGI [36] was 1170 nM. The GI50 [37] was 213 nM, the TGI [37] was 4610 nM and the GI50 [38] was 129 nM. The TGI [38] was 7970 nM, the GI50 [39] was 104 nM and the TGI [39] was 5310 nM. The GI50 [40] was 201 nM, the TGI [40] was 463 nM and the GI50 [41] was 376 nM. For the same compound, the TGI [41] was 4760 nM, the GI50 [42] was 91.2 nM and the TGI [42] was 1030 nM. It also gave a GI50 [43] of 97.2 nM, a TGI [43] of 424 nM and a GI50 [56] of 114 nM. It also gave a TGI [56] of 365 nM, a GI50 [57] of 76.2 nM and a TGI [57] of 257 nM. The GI50 [45] was 32.1 nM, the TGI [45] was 2230 nM and the GI50 [46] was 83.7 nM. For the same compound, the TGI [46] was 4270 nM, the GI50 [47] was 114 nM and the TGI [47] was 265 nM. The GI50 [48] was 364 nM, the TGI [48] was 953 nM and the GI50 [49] was 76.8 nM. The TGI [49] was 2060 nM, the GI50 [50] was 75.7 nM and the TGI [50] was 699 nM. The GI50 [51] was < 13.2 nM, the GI50 [53] was 38.7 nM and the TGI [53] was 10100 nM. It also gave a GI50 [54] of 97.4 nM and a TGI [54] of 1140 nM.
